Experimental data as given in article PMC9848300, “Discovery of novel enasidenib analogues targeting inhibition of mutant isocitrate dehydrogenase 2 as antileukaemic agents” (Journal of Enzyme Inhibition and Medicinal Chemistry, 2023).
Where two headings read alike, the source gives them in different places.

Assays:
Format in all cases: cell-based
[1] = tested on: OVCAR-3; experiment: NCI 60 antitumor screening (single dose); settings: Homo sapiens; OVCAR-3 (ovarian cancer), single dose 10 μM; read-out: Growth inhibition percentage (GI %)
Description: (§1) Initially, the anticancer effects of target compounds have been assessed at a single (10 μM) dose. The obtained data have been reported as mean-graph of the percent growth (G%) of the treated cancer cells. Percentage growth inhibition (GI%) is calculated (100 − G%) and pronounced in Table 1. […] Target compounds in series (III) with manipulated linkers disclosed lower potency. Superiorly, eight s-triazine derivatives from the three series (6a, 6c, 6d, 7a, 7g, 7i, 7l, and 8b) have shown potent broad-spectrum anticancer activity against most the examined cell lines, whereas most of the remaining triazine derivatives, 20 derivatives, have exerted selective anti-proliferative actions towards certain cancer cell lines (Supplementary).
(§2) The antitumor screening was performed for 60 human cancer cell lines under the protocol of NCI (www.dtp.nci.nih.gov), the Drug Evaluation Branch, Bethesda, MD. All submitted compounds were nominated based on the degree of structural diversity and computer modelling techniques for evaluation of their anticancer activity. The screening process for antineoplastic activity passes through two successive levels, starting with the assessment of target compounds at a single dose of 10 μM against 60 cancer cell lines on nine types of human tumours. These experiments were done on a triplicate following. The output from the single‐dose screening was covered as a mean graph, and then, analysed by the COMPARE program. Finally, the compounds which disclosed subpanel cancer cell growth (G %) equal to or less than 10% in at least eight cancer cell lines get to pass the assessment against the 60 cell lines at five doses (0.01–100 μM). By using GraphPad Prism version 9.0 (Graphpad Software Inc., La Jolla, CA), GI50, TGI, as well as LC50 dose‐response parameters were computed and presented for each compound (Supplementary information)[55–57].

[2] = tested on: PC-3; experiment: NCI 60 antitumor screening (single dose); settings: Homo sapiens; PC-3 (prostate cancer), single dose 10 μM; read-out: Growth inhibition percentage (GI %)
Description: as §1, §2

[3] = tested on: NCI-H522; experiment: NCI 60 antitumor screening (single dose); settings: Homo sapiens; NCI-H522 (non-small cell lung cancer), single dose 10 μM; read-out: Growth inhibition percentage (GI %)
Description: as §1, §2

[4] = tested on: NCI-H322M; experiment: NCI 60 antitumor screening (single dose); settings: Homo sapiens; NCI-H322M (non-small cell lung cancer), single dose 10 μM; read-out: Growth inhibition percentage (GI %)
Description: as §1, §2

[5] = tested on: MCF7; experiment: NCI 60 antitumor screening (single dose); settings: Homo sapiens; MCF7 (breast cancer), single dose 10 μM; read-out: Growth inhibition percentage (GI %)
Description: as §1, §2

[6] = tested on: M14; experiment: NCI 60 antitumor screening (single dose); settings: Homo sapiens; M14 (melanoma), single dose 10 μM; read-out: Growth inhibition percentage (GI %)
Description: as §1, §2

[7] = tested on: U251; experiment: NCI 60 antitumor screening (single dose); settings: Homo sapiens, U-251; U251 (CNS cancer), single dose 10 μM; read-out: Growth inhibition percentage (GI %)
Description: as §1, §2

[8] = tested on: CAKI-1; experiment: NCI 60 antitumor screening (single dose); settings: Homo sapiens; CAKI-1 (renal cancer), single dose 10 μM; read-out: Growth inhibition percentage (GI %)
Description: as §1, §2

[9] = tested on: SK-OV-3; experiment: NCI 60 antitumor screening (single dose); settings: Homo sapiens; SK-OV-3 (ovarian cancer), single dose 10 μM; read-out: Growth inhibition percentage (GI %)
Description: as §1, §2

[10] = tested on: KM 12; experiment: NCI 60 antitumor screening (single dose); settings: Homo sapiens, KM12; KM 12 (colon cancer), single dose 10 μM; read-out: Growth inhibition percentage (GI %)
Description: as §1, §2

[11] = tested on: OVCAR-4; experiment: NCI 60 antitumor screening (single dose); settings: Homo sapiens; OVCAR-4 (ovarian cancer), single dose 10 μM; read-out: Growth inhibition percentage (GI %)
Description: as §1, §2

[12] = tested on: NCI-H226; experiment: NCI 60 antitumor screening (single dose); settings: Homo sapiens; NCI-H226 (non-small cell lung cancer), single dose 10 μM; read-out: Growth inhibition percentage (GI %)
Description: as §1, §2

[13] = tested on: NCI-H23; experiment: NCI 60 antitumor screening (single dose); settings: Homo sapiens; NCI-H23 (non-small cell lung cancer), single dose 10 μM; read-out: Growth inhibition percentage (GI %)
Description: as §1, §2

[14] = tested on: OVCAR-8; experiment: NCI 60 antitumor screening (single dose); settings: Homo sapiens; OVCAR-8 (ovarian cancer), single dose 10 μM; read-out: Growth inhibition percentage (GI %)
Description: as §1, §2

[15] = tested on: OVCAR-5; experiment: NCI 60 antitumor screening (single dose); settings: Homo sapiens; OVCAR-5 (ovarian cancer), single dose 10 μM; read-out: Growth inhibition percentage (GI %)
Description: as §1, §2

[16] = tested on: NCI-H460; experiment: NCI 60 antitumor screening (single dose); settings: Homo sapiens; NCI-H460 (non-small cell lung cancer), single dose 10 μM; read-out: Growth inhibition percentage (GI %)
Description: as §1, §2

[17] = tested on: A549/ATCC; experiment: NCI 60 antitumor screening (single dose); settings: Homo sapiens; A549/ATCC (non-small cell lung cancer), single dose 10 μM; read-out: Growth inhibition percentage (GI %)
Description: as §1, §2

[18] = tested on: HOP-62; experiment: NCI 60 antitumor screening (single dose); settings: Homo sapiens; HOP-62 (non-small cell lung cancer), single dose 10 μM; read-out: Growth inhibition percentage (GI %)
Description: as §1, §2

[19] = tested on: HS 578T; experiment: NCI 60 antitumor screening (single dose); settings: Homo sapiens; HS 578T (breast cancer), single dose 10 μM; read-out: Growth inhibition percentage (GI %)
Description: as §1, §2

[20] = tested on: SF-268; experiment: NCI 60 antitumor screening (single dose); settings: Homo sapiens; SF-268 (CNS cancer), single dose 10 μM; read-out: Growth inhibition percentage (GI %)
Description: as §1, §2

[21] = tested on: SK-MEL-28; experiment: NCI 60 antitumor screening (single dose / five doses); settings: Homo sapiens
[22] = tested on: T-47D; experiment: as above; settings: Homo sapiens, T47D; for inhibition at 10 µM: read-out: Growth inhibition percentage (GI %)
[23] = tested on: SK-MEL-5; experiment: as above; settings: Homo sapiens
[24] = tested on: SN 12C; experiment: as above; settings: Homo sapiens, SN12C; for inhibition at 10 µM: read-out: Growth inhibition percentage (GI %)
[25] = tested on: DU-145; experiment: as above; settings: Homo sapiens
[26] = tested on: HL-60(TB); experiment: as above; settings: Homo sapiens
[27] = tested on: MOLT-4; experiment: as above; settings: Homo sapiens
[28] = SK-MEL-28 (melanoma), single dose 10 μM, read-out: Growth inhibition percentage (GI %)
[29] = T-47D (breast cancer), single dose 10 μM
[30] = SK-MEL-5 (melanoma), single dose 10 μM, read-out: Growth inhibition percentage (GI %)
[31] = SN 12C (renal cancer), single dose 10 μM
[32] = DU-145 (prostate cancer), single dose 10 μM, read-out: Growth inhibition percentage (GI %)
[33] = HL-60(TB) (leukaemia), single dose 10 μM, read-out: Growth inhibition percentage (GI %)
[34] = MOLT-4 (leukaemia), single dose 10 μM, read-out: Growth inhibition percentage (GI %)

| SMILES | inhibition at 10 µM [1] | inhibition at 10 µM [2] | inhibition at 10 µM [3] | inhibition at 10 µM [4] | inhibition at 10 µM [5] | inhibition at 10 µM [6] | inhibition at 10 µM [7] | inhibition at 10 µM [8] | inhibition at 10 µM [9] | inhibition at 10 µM [10] | inhibition at 10 µM [11] | inhibition at 10 µM [12] | inhibition at 10 µM [13] | inhibition at 10 µM [14] | inhibition at 10 µM [15] | inhibition at 10 µM [16] | inhibition at 10 µM [17] | inhibition at 10 µM [18] | inhibition at 10 µM [19] | inhibition at 10 µM [20] | other results |
| --- | --- | --- | --- | --- | --- | --- | --- | --- | --- | --- | --- | --- | --- | --- | --- | --- | --- | --- | --- | --- | --- |
| O=[N+]([O-])c1cccc(/C=N/Nc2nc(N/N=C/c3cccc([N+](=O)[O-])c3)nc(N3CCCCC3)n2)c1 [compound 7f, 2,4-Bis[(E)-2-[(3-Nitrophenyl)methylidene]hydrazin-1-yl]-6-(piperidin-1-yl)-1,3,5-triazine] | 44.4% | 51.4% | 58.1% | 13.8% | 38.7% | 41.2% | 28.6% | 27.6% | -14.3% | 35.2% | 32.3% | 42.6% | 37.8% | 48.9% | -13% | 31.3% | 39.3% | 41.5% | 20.8% | 24.3% | inhibition at 10 µM ([21]; SK-MEL-28, read-out: Growth inhibition percentage (GI %)): 31.4%; inhibition at 10 µM [22]: 47.5%; inhibition at 10 µM ([23]; SK-MEL-5, read-out: Growth inhibition percentage (GI %)): 52.4%; inhibition at 10 µM [24]: 31.9%; inhibition at 10 µM ([25]; DU-145, read-out: Growth inhibition percentage (GI %)): 29.8%; inhibition at 10 µM ([26]; HL-60, read-out: Growth inhibition percentage (GI %)): 42.8%; inhibition at 10 µM ([27]; MOLT-4, read-out: Growth inhibition percentage (GI %)): 57.2% |
| Oc1ccccc1/C=N/Nc1nc(N/N=C/c2ccccc2O)nc(N2CCOCC2)n1 [compound 6a, 2-[(1e)-(2-{4-[(E)-2-[(2-Hydroxyphenyl)methylidene]hydrazin-1-yl]-6-(morpholin-4-yl)-1,3,5-triazin-2-yl}hydrazin-1-ylidene)methyl]phenol] | 66.4% | 75.9% | 39.1% | 55.5% | 60% | 62.4% | 78% | 95.4% | 88.1% | 47.3% | 88.2% | 76.7% | 58.5% | 87.3% | 63% | 67.5% | 87% | 74.3% | 53% | 27.7% | inhibition at 10 µM [21, 28]: 72%; GI50 ([21]; SK-MEL-28, five doses (0.01–100 μM), read-out: GI50): 3.2 µM; inhibition at 10 µM [22, 29]: 53.9%; GI50 ([22]; T-47D, five doses (0.01–100 μM), read-out: GI50): 3.34 µM; inhibition at 10 µM [23, 30]: 34.2%; GI50 ([23]; SK-MEL-5, five doses (0.01–100 μM), read-out: GI50): 5.86 µM; inhibition at 10 µM [24, 31]: 72.8%; GI50 ([24]; SN 12C, five doses (0.01–100 μM), read-out: GI50): 18.3 µM; inhibition at 10 µM [25, 32]: 64.5%; GI50 ([25]; DU-145, five doses (0.01–100 μM), read-out: GI50): 6.09 µM; inhibition at 10 µM [26, 33]: 96.3%; GI50 ([26]; HL-60(TB), five doses (0.01–100 μM), read-out: GI50): 0.19 µM; inhibition at 10 µM [27, 34]: 54.9%; GI50 ([27]; MOLT-4, five doses (0.01–100 μM), read-out: GI50): 1.55 µM |
| C(=N\Nc1nc(N/N=C/c2ccc3c(c2)OCO3)nc(N2CCCCC2)n1)/c1ccc2c(c1)OCO2 [compound 7k, 2,4-Bis[(E)-2-(2H-1,3-Benzodioxol-5-ylmethylidene)hydrazin-1-yl]-6-(piperidin-1-yl)-1,3,5-triazine] | -5.21% | 26.4% | 8.07% | 1.53% | 45.2% | 2.72% | 18.6% | 1.07% | -39.5% | 13.8% | -9.55% | -0.61% | -1.44% | 9.89% | -18.2% | 9.41% | 8.56% | -22.5% | -4.09% | -0.46% | inhibition at 10 µM [21, 28]: -8.67%; inhibition at 10 µM [22, 29]: 12.8%; inhibition at 10 µM [23, 30]: 3.15%; inhibition at 10 µM [24, 31]: 20.3%; inhibition at 10 µM [25, 32]: 0.19%; inhibition at 10 µM [26, 33]: 39.6%; inhibition at 10 µM [27, 34]: 43.7% |
| Clc1cccc(/C=N/Nc2nc(N/N=C/c3cccc(Cl)c3)nc(N3CCCCC3)n2)c1 [compound 7d, 2,4-Bis[(E)-2-[(3-Chlorophenyl)methylidene]hydrazin-1-yl]-6-(piperidin-1-yl)-1,3,5-triazine] | 8.59% | 24% | 11.7% | -1.33% | 16.9% | 4.75% | 8.35% | 7.63% | -9.25% | 8.95% | 9.83% | 18% | 2.24% | 10.8% | -10.4% | 3.48% | 13.7% | -4.1% | -4.65% | 8.03% | inhibition at 10 µM [21, 28]: 3.79%; inhibition at 10 µM [22, 29]: 24%; inhibition at 10 µM [23, 30]: 19.4%; inhibition at 10 µM [24, 31]: 7.63%; inhibition at 10 µM [25, 32]: 5.38%; inhibition at 10 µM [26, 33]: 3.01%; inhibition at 10 µM [27, 34]: 31.3% |
